Source: US20110178165A1, “TETRAHYDROFURANYL SULFONAMIDES AND PHARMACEUTICAL COMPOSITIONS THEREOF” (Pfizer Inc., priority 2008, published 2011)
pEC50: −log10 of the molar value.

system: AMPA receptors; assay: AMPA ES cell FLIPR screen (AMPA potentiator assay); type: cell-based; settings: murine ES cell-derived neurons, FLIPR Fluo-4 calcium, 32 uM AMPA challenge; * = geometric mean of 2 EC50 determinations
Method: The murine ES cell line used was E14-Sx1-16C, which has a targeted mutation in the Sox1 gene, a neuroectodermal marker, that offers G418 resistance when the Sox1 gene is expressed (Stem Cell Sciences). ES cells were maintained undifferentiated as previously described (Roach). […] ES cells were plated on gelatin-coated dishes (BD Biosciences), the media was changed daily and the cells were dissociated with 0.05% Trypsin EDTA (Invitrogen) every other day.
Embryoid Body Formation: Prior to embryoid body (EB) formation the ES cells were weaned from FBS onto Knockout Serum Replacement (KSR) (Invitrogen). To form EBs, ES cells were dissociated into a single cell suspension, then 3×10^6 cells were plated in bacteriology dishes (Nunc 4014) and grown as a suspension culture in NeuroEB-I medium that consisted of Knockout™ D-MEM (Invitrogen), supplemented with 10% KSR (Invitrogen), 0.2 mM L-Glutamine (Invitrogen), 0.1 mM MEM non-essential amino acids (Invitrogen), 30 μg/ml Gentamicin (Invitrogen), 1000 u/ml ESGRO (Chemicon), 0.1 mM 2-Mercaptoethanl (Sigma) and 150 ng/ml Transferrin (Invitrogen). The plates were put on a Stovall Belly Button shaker in an atmospheric oxygen incubator. The media was changed on day 2 of EB formation with NeuroEB-I and on day 4 with NeuroEB-II (NeuroEB-I plus 1 μg/ml mNoggin [R&D Systems]).
Neuronal Precursor Selection and Expansion: On day 5 of EB formation, EBs were dissociated with 0.05% Trypsin EDTA, and 4×10^6 cells/100 mm dish were plated on Laminin coated tissue culture dishes in Neuroll-G418 medium that consisted of a base medium of a 1:1 mixture of D-MEM/F12 supplemented with N2 supplements and NeuroBasal Medium supplemented with B27 supplement and 0.1 mM L-Glutamine (all from Invitrogen). The base medium was then supplemented with 10 ng/ml bFGF (Invitrogen), 1 μg/ml mNoggin, 500 ng/ml SHH—N, 100 ng/ml FGF-8b (R&D Systems), 1 μg/ml Laminin and 200 μg/ml G418 (Invitrogen) for selection of neuronal precursors expressing Sox-1. The plates were put in an incubator that contained 2% Oxygen and were maintained in these conditions. During the 6-day selection period, the Neuroll media was changed daily. On day 6, the surviving neuronal precursor foci were dissociated with 0.05% Trypsin EDTA and the cells were plated at a density of 1.5×10^6 cells/100 mm Laminin coated dish in Neuroll-G418 medium. The cells were dissociated every other day for expansion, and prepared for Cryopreservation at passage 3 or 4. The crypreservation medium contained 50% KSR, 10% Dimethyl Sulfoxide (DMSO) (Sigma) and 40% Neurol-G418I medium. Neuronal precursors were cryopreserved at a concentration of 4×10^6 cells/ml and 1 ml/cryovial in a controlled rate freezer overnight then transferred to an ultra-low freezer or liquid nitrogen for long-term storage. […]

pEC50 | Structure (SMILES)
< 4.50 | CC(C)S(=O)(=O)N[C@@H]1COC[C@@]1(O)c1ccc(-c2ccccc2)cc1 (stereo in doubt) [Example 4, N-[(3R,4R)-4-biphenyl-4-yl-4-hydroxytetrahydrofuran-3-yl]propane-2-sulfonamide]
5.23 | CC(C)S(=O)(=O)N[C@H]1COC[C@]1(O)c1ccc(-c2ccc(C#N)s2)cc1 [Example 1, N-{(3S,4S)-4-[4-(5-cyano-2-thienyl)phenyl]-4-hydroxytetrahydrofuran-3-yl}propane-2-sulfonamide]
< 4.50 | CC(C)S(=O)(=O)N[C@@H]1COC[C@@]1(O)c1ccc(-c2ccc(C#N)s2)cc1 [Example 2, N-{(3R,4R)-4-[4-(5-cyano-2-thienyl)phenyl]-4-hydroxytetrahydrofuran-3-yl}propane-2-sulfonamide]
5.92 | CC(C)S(=O)(=O)N[C@H]1COC[C@]1(O)c1ccc(-c2ccccc2)cc1 [Example 3, N-[(3S,4S)-4-biphenyl-4-yl-4-hydroxytetrahydrofuran-3-yl]propane-2-sulfonamide]
